# Laboratory results: patent US10947234B2, “PRMT5 inhibitors” (Merck Sharp & Dohme Corp., priority 2017, dated 2021)
# Where two headings read alike, the source gives them in different places.
# Experiments:
# [1] = target: Full-length (FL)-PRMT5-MEP50 enzyme complex (Homo sapiens (Human), UniProt O14744); test: PRMT5-MEP50 Enzyme Methylation Assay; type: biochemical; conditions: biotinylated H4R3(Me1) peptide, 15 μM SAM, top compound concentration 100000 nM
# Description: PRMT5-MEP50 Enzyme Methylation Assay
# PRMT5/MEP50 biochemical assay is a direct measurement of the methylation activity of the enzyme complex on a short peptide substrate derived from the N-terminus of H4 histone. Methylation experiment is performed with recombinant protein. The assessment of inhibitory effect (IC50) of small molecules is measured by the effectiveness of the compounds to inhibit this reaction.
# To each well of a white ProxiPlus 384 well-plate, 100 nL of compound (1% DMSO in final assay volume of 10 μL) was dispensed, followed by the addition of 8 μL of 1× assay buffer (50 mM Bicine pH 8.0, 1 mM DTT, 0.004% Tween20, 0.01% BSA) containing 0.5 nM of Full-length (FL)-PRMT5-MEP50 enzyme complex (recombinant proteins from baculovirus-transfected Sf21 cells: FL-PRMT5; MW=[…] and FL-MEP50; MW=38614). Plates were sealed and placed in a 37° C. humidified chamber for 30 minutes pre-incubation with compounds. Subsequently, each reaction was initiated by the addition of 2 μL 1× assay buffer containing 75 nM biotinylated H4R3(Me1) peptide, and 15 μM S-(5′-Adenosyl)-L-Methionine Chloride (SAM). The final reaction in each well of 10 μL consists of 0.5 nM PRMT5-MEP50, 75 nM biotinylated-peptide, and 15 μM. Methylation reactions were allowed to proceed for 150 minutes in a sealed plate at 37° C. Reactions were immediately quenched by the addition of 1 μL of 10% formic acid. Plates were then frozen and shipped to SAMDI™ Tech Inc. to determine the percent conversion from […]. IC50 values were determined by 7 parameters biphasic fit model plotting the percent product conversion vs. (Log10) compound concentrations.
# PRMT5 = PRMT5 (Homo sapiens (Human), UniProt O14744); test: PRMT5 Cell Target Engagement (TE) Assay; type: cell-based; conditions: MCF-7 cells, 3 days treatment, nuclear SDMA by high content imaging; top compound concentration 10000 nM
# Sequence of PRMT5 (O14744 whole entry): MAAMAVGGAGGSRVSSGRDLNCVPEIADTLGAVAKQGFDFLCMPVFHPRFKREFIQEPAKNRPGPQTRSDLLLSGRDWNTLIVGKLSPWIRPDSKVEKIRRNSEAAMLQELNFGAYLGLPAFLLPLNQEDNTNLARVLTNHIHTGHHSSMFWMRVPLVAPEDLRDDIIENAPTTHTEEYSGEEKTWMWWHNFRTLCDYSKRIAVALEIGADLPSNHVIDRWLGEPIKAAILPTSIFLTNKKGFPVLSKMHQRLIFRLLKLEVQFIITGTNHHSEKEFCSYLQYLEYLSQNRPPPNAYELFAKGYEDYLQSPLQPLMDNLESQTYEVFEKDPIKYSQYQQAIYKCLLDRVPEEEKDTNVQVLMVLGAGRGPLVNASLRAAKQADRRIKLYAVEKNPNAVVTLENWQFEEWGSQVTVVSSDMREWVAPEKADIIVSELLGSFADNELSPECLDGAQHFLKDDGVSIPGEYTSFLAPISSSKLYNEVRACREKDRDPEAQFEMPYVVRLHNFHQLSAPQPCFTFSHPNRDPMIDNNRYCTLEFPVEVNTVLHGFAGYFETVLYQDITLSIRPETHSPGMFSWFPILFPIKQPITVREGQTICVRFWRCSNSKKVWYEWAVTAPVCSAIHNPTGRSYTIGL
# Sequence of PRMT5 (Q9BQA1 whole entry partner): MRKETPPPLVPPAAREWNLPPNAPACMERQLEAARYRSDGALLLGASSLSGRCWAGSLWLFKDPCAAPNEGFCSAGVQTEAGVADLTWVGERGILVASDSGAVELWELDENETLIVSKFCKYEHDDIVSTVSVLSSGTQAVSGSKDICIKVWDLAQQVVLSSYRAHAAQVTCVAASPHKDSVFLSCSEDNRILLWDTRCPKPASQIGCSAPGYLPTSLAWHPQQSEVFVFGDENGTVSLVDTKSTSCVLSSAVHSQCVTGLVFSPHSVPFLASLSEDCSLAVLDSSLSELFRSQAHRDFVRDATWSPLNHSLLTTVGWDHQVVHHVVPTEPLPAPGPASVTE
# Text: PRMT5 Cell Target Engagement (TE) Assay
# The PRMT5 TE assay is a biomarker assay for identifying compounds that inhibit symmetric dimethylation of arginine (SDMA) of PRMT5 substrates. This assay detects symmetrically dimethylated nuclear proteins using high content imaging technology. Detection of the expression of symmetrically dimethylated nucleo proteins is through a mixture of primary rabbit monoclonal antibodies to SDMA (CST 13222), which in turn recognized by an Alexafluor 488 dye-conjugated anti-rabbit IgG secondary antibody. The IN Cell Analyzer 2200 measures nuclear Alexafluor 488 fluorescent dye intensity that is directly related to the level of expression of symmetrically dimethylated nuclear proteins at the single cell level. Nuclear AF488 dye intensities are compared to the mean value for DMSO treated cells […] to report percent of inhibition for each compound-treated well.
# Each well of a BD falcon collagen coated black/clear bottom 384-well plate was seeded with 4000 MCF-7 cells and allowed to attach for 5 hours. Media from cell plate was removed at 0.5 mm above the bottom of the plate and replaced with 30 μL of fresh media containing 1.2× compounds in 0.1% DMSO. Cells were treated for 3 days in 37° C. CO2 incubator. On day 3, cells were fixed with Cytofix, permeablized with 0.4% Triton-X-100/Cytofix, and washed with D-PBS without Ca/Mg. Cells were blocked with Licor Odessey blocking reagent for one hour at room temperature, followed by incubation with anti-SDMA (1:1000) antibody at 4° C. overnight. 1° antibody was removed, followed by three washings with DPBS without Ca/Mg and 0.05% Tween20. Hoechst (5 μg/ml), Cell Mask deep stain (1:2000) and Alexa488-conjugated goat anti-rabbit IgG (2 μg/mL) was added for 1 hour at room temperature. A final washing step (three washes) was performed before sealing plate for imaging on In Cell Analyzer 2200. Images from analyzer were uploaded to Columbus (at WP) for image analysis. IC50 values were determined by 4 parameters robust fit of percent fluorescence units vs. (Log10) compound concentrations.
# [2] = first IC50 of 7 parameters biphasic fit, read-out: Enzyme Methylation Assay IC50_1
# [3] = second IC50 of 7 parameters biphasic fit, read-out: Enzyme Methylation Assay IC50_2
# Sequence of Full-length (FL)-PRMT5-MEP50 enzyme complex (O14744 whole entry): as the sequence (O14744 whole entry) above
# Sequence of Full-length (FL)-PRMT5-MEP50 enzyme complex (Q9BQA1 whole entry partner): as the sequence (Q9BQA1 whole entry partner) above
SMILES,"IC50 [1, 2] [µM]","IC50 [1, 3] [µM]",EC50 (PRMT5) [µM]
"CC[C@H]1CN(C[C@@H](O)[C@@H]2Cc3ccccc3CN2)C(=O)c2cc(Cl)ncc21 (single isomer, unassigned) [Example 1]",5.19,≥ 100,≥ 10
"CC[C@H]1CN(C[C@@H](O)[C@@H]2Cc3ccccc3CN2)C(=O)c2cc(Cl)ncc21 (single isomer, unassigned) [Example 2]",3.83,≥ 100,≥ 10
"CC[C@H]1CN(C[C@@H](O)[C@@H]2Cc3ccccc3CN2)C(=O)c2cc(Cl)ncc21 (single isomer, unassigned) [Example 3]",28.3,≥ 100,≥ 10
"CC[C@H]1CN(C[C@@H](O)[C@@H]2Cc3ccccc3CN2)C(=O)c2cc(Cl)ncc21 (single isomer, unassigned) [Example 4]",42.9,≥ 100,≥ 10
"CC[C@H]1CN(C[C@@H](O)[C@@H]2Cc3ccccc3CN2)C(=O)c2cc(NC3CCN(C(C)=O)CC3)ncc21 (single isomer, unassigned) [Example 7]",0.00715,4.99,0.682
"CC[C@H]1CN(C[C@@H](O)[C@@H]2Cc3ccccc3CN2)C(=O)c2cc(NC3CCN(C(C)=O)CC3)ncc21 (single isomer, unassigned) [Example 8]",0.0968,29.1,3.24
"CC[C@H]1CN(C[C@@H](O)[C@@H]2Cc3ccccc3CN2)C(=O)c2cc(NC3CCN(C(C)=O)CC3)ncc21 (single isomer, unassigned) [Example 9]",0.00108,1.18,0.103
"CC[C@H]1CN(C[C@@H](O)[C@@H]2Cc3ccccc3CN2)C(=O)c2cc(NC3CCN(C(C)=O)CC3)ncc21 (single isomer, unassigned) [Example 10]",0.272,64.5,≥ 10
"CC(=O)N1CCC(Nc2cc3c(cn2)C(C)(C)CN(C[C@@H](O)[C@@H]2Cc4ccccc4CN2)C3=O)CC1 (single isomer, unassigned) [Example 11]",0.0569,9.23,3.89
"CC(=O)N1CCC(Nc2cc3c(cn2)C(C)(C)CN(C[C@@H](O)[C@@H]2Cc4ccccc4CN2)C3=O)CC1 (single isomer, unassigned) [Example 12]",0.00153,0.631,0.102
